Data on two molecules can be found in patent US4465851A, “Guanidinocyclohexanecarboxylic acid derivatives” (Nippon Chemiphar Co., Ltd., priority 1981, dated 1984).

Values joined by “and” are separate entries in the source; they are usually repeats but may differ in a detail not shown here. Equal entries are not always repeated. Structures can show the parent of a compound that is named as a salt.

The test system of data set [1] is Plasmin. As to conditions: J. Med. Chem., Vol. 15, No. 3, 247 (1972); cited from earlier work.
The subject of data set [2] is ileum of each sensitized guinea pig. Put plainly: Schultz-Dale reaction. The note with it: Cavia porcellus, read-out: Inhibition of contraction (Schultz-Dale reaction). On the procedure: Male guinea pigs were sensitized with bovine serum albumin by Freund's complete adjuvant method. After a lapse of 10 days, the animals were sensitized once more as described above. After two more weeks, an ileum of each sensitized guinea pig was removed and used for experiment. The ileum was equipped in a magnus tube containing each test sample, and 500 μg of bovine serum albumin was added. The contraction of the ileum was determined.

Data set [3] addresses Plasma kallikrein (Homo sapiens, UniProt P03952). Put plainly: Inhibition of plasma kallikrein (TAMe hydrolysis). The note with it: TAMe substrate; read-out: Concentration for 50% inhibition (IC50), plasma kallikrein. It is filed as biochemical. The protocol: (§1) Inhibitory effects on the TAMe(N^α -tosyl-L-arginine methyl ester) hydrolytic activity of trypsin, plasmin, plasma kallikrein and thrombin were estimated by Hesterin's method modified by Roberts. Inhibition of the BAEe(N^α -benzoyl-L-arginine ethyl ester) hydrolytic activity of pancreas kallikrein was determined by Hesterin's method after incubation at 37° C. for 30 minutes in a 0.1M borate buffer, pH 8.0. Inhibitory effects on urokinase were determined by the chromotropic acid method after incubation of 60 iu of urokinase with 10 mM AGLMe(acetylglycyl-L-lysine methyl ester) at 37° C. for 30 minutes in a 0.06M phosphate buffer, pH 7.5, containing 0.09M NaCl. Inhibition of chymotrypsin was determined by Hesterin's method after incubation with 15 mM ATE (N^α -acetyl-L-tyrosine ethyl ester) for 30 minutes at 37° C. in a 0.1M borate buffer, pH 8.0.

The nature of data set [4]: Acute toxicity in rats. As to conditions: rat, in vivo, po. On the procedure:
(§2) Normal ICR strain mice (female: 22 g, male: 24 g) or Wister strain rats (female: 90 g, male: 95 g) were used. A test compound was orally given using a gastric sonde. […] The LD50 values were calculated by the Litchfield-Wilcoxon method.

A short description of data set [5]: Passive cutaneous anaphylaxis. It is filed as in vivo. The note with it: rat, 125 mg/kg, p.o., 1 hour prior to antigen; dilution ratio of antigen × 32. On the procedure: Diluted anti-egg albumin (rat anti-egg albumin serum) with saline (0.05 ml) was subcutaneously injected into the back of a rat. 48 hours later, egg albumin and Evans' blue dissolved in saline (egg albumin 10 mg and Evans' blue 5 mg/ml) were intravenously injected into the rat in an amount of 2.5 ml/kg. 45 minutes later, the rat was killed, bled and skined, and the permeated area (mm^2) of the dye was measured. Test samples were administered per os 1 hour prior to antigen injection.

Data set [6] deals with guinea pigs ilea. Kind of data set: Anti-histamine action. Also on record: species or system guinea pig. As to conditions: Cavia porcellus, read-out: Anti-histamine effect inhibition of contraction. An excerpt: (§3) Anti-acetylcholine and anti-histamine effects of the present compounds were examined using guinea pigs ilea by the usual method.
The nature of data set [7]: Experimental asthma with passively sensitized guinea pigs. As to conditions: 500 mg/kg oral, individual animals (10 animals). In kind it is in vivo, Hartley male guinea pigs. On the procedure: Hartley male guinea pigs each weighing 300 to 350 g were passively sensitized by intravenous injection with rabbit anti-egg albumin serum (0.5 ml/kg). 24 hours after passive sensitization, the guinea pigs were placed in a chamber for an inhalation test and then subjected to continuous spraying for 900 seconds with a mist of a 2% egg albumin solution. A test sample suspended in 5% gum arabic was orally administered 1 hour prior to the antigen challenge. The preconvulsion time was measured.

For data set [8], the system named is guinea pigs ilea. Put plainly: Anti-acetylcholine action. Also on record: species or system guinea pig. As to conditions: Cavia porcellus, read-out: Anti-acetylcholine effect inhibition of contraction.
Excerpt: as §3

The nature of data set [9]: Active systemic anaphylaxis in mice. In kind it is in vivo. As to conditions: oral, survivors of 5 mice. On the procedure: Egg albumin (10 mg) was mixed with 10 ml Bordetella pertusis vaccine (Takeda Chemical Industries, Ltd.), and the mixture was intraperitoneally injected into mice in an amount of 10 ml/kg. 22 days later, active systemic anaphylaxis was induced by intravenous injection of egg albumin dissolved in saline in an amount of 3 mg/10 ml/kg. A test sample suspended in 5% gum arabic was administered orally to the sensitized mice 1 hour prior to the antigen challenge. 24 hours after the antigen challenge, the number of survived mice was counted.

For data set [10], the target named is Plasmin (Homo sapiens, UniProt P00747). Kind of data set: Inhibition of plasmin (TAMe hydrolysis). In kind it is biochemical. The note with it: TAMe substrate; read-out: Concentration for 50% inhibition (IC50), plasmin. On the procedure:
as §1

Data set [11] deals with Mast cells. Kind of data set: Effects on histamine release from mast cells induced by compound 48/80. In kind it is cell-based. The note with it: Mast cell, read-out: Inhibition of histamine release.
Description: After incubation for 20 minutes at 37° C., the suspension was cooled to 4° C., and released histamine was determined as described by Shore et al. All samples examined were recognized to cause no disturbance in the fluorometric assay.
For data set [12], the target named is Pancreas kallikrein (Sus scrofa, UniProt P00752). Put plainly: Inhibition of pancreas kallikrein (BAEe hydrolysis). As to conditions: BAEe substrate, 37° C., 30 minutes, pH 8.0; read-out: Concentration for 50% inhibition (IC50), pancreas kallikrein. It is filed as biochemical. The protocol:
as §1

The target of data set [13] is Thrombin (Homo sapiens, UniProt P00734). Kind of data set: Inhibition of thrombin (TAMe hydrolysis). It is filed as biochemical. As to conditions: TAMe substrate; read-out: Concentration for 50% inhibition (IC50), thrombin.
Data set [14] can be described thus: Experimental asthma with actively sensitized guinea pigs. In kind it is in vivo, Hartley male guinea pigs. The note with it: individual animals, hydrochloride. The protocol:
The evaluation was also performed in the experimental asthma with actively sensitized guinea pigs as follows: Hartley male guinea pigs each weighing 300 to 350 g were sensitized (by subcutaneous injection into the inguinal region) with an egg albumin solution (1 mg/ml) emulsified with an equal volume of Freund's complete adjuvant (5 mg/kg of body weight). Ten days later, the emulsion was injected subcutaneously into the axilla. On the 26th day after the first sensitization, the animals were subjected to the experiments which were conducted in the same manner as in the passively sensitized animals.

Data set [15] can be described thus: Acute toxicity in mice. The note with it: mouse, in vivo, po. On the procedure:
as §2

The target in data set [16] is Urokinase (Homo sapiens, UniProt P00749). Kind of data set: Inhibition of urokinase (AGLMe, chromotropic acid method). It is filed as biochemical. As to conditions: 60 iu urokinase, 10 mM AGLMe, 37° C., 30 minutes, pH 7.5; read-out: Concentration for 50% inhibition (IC50), urokinase. On the procedure: as §1
Data set [17] concerns the target Chymotrypsin (Bos taurus, UniProt P00766). Kind of data set: Inhibition of chymotrypsin (ATE hydrolysis). It is filed as biochemical. The note with it: 15 mM ATE, 30 minutes, 37° C., pH 8.0; read-out: Concentration for 50% inhibition (IC50), chymotrypsin. On the procedure: as §1
For data set [18], the target named is T1, Trypsin (Bos taurus, UniProt P00760).
T1 sequence (P00760 24-246): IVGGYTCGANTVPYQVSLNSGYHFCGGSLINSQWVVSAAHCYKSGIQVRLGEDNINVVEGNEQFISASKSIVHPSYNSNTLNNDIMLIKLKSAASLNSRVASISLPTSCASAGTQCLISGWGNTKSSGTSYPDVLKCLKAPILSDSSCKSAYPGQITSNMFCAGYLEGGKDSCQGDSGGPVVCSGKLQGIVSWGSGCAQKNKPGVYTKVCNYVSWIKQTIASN
Kind of data set: Inhibition of trypsin (TAMe hydrolysis). In kind it is biochemical. As to conditions: TAMe substrate; read-out: Concentration for 50% inhibition (IC50), trypsin. The protocol: as §1

Plasmin (Homo sapiens, UniProt P00747), sequence (P00747 97-580 limits assumed, species assumed): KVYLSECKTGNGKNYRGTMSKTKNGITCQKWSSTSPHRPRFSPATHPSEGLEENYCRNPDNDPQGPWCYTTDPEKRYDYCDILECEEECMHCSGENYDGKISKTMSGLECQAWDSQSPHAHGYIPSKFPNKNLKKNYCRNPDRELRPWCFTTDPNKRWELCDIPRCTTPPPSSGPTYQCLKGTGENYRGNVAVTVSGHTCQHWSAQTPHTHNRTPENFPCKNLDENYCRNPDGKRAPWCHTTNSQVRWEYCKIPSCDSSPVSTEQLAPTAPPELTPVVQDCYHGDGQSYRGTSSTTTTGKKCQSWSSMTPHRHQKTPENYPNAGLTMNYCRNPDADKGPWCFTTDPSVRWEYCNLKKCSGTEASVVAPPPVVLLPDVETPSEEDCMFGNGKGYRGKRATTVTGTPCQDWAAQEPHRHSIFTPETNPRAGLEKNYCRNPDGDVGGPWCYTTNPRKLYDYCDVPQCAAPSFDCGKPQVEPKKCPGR
Plasma kallikrein, sequence (P03952 20-390 limits assumed, species assumed): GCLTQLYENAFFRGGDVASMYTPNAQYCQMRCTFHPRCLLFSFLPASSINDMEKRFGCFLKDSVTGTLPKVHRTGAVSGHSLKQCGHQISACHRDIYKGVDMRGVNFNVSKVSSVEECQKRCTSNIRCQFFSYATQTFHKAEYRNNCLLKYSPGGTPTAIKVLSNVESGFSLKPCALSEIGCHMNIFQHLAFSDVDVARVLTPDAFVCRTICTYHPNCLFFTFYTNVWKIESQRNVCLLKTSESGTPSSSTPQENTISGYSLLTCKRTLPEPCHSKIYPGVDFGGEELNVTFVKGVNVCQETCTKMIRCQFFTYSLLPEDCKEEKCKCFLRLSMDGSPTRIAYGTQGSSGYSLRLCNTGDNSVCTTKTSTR
Pancreas kallikrein, sequence (P00752 15-246 limits assumed): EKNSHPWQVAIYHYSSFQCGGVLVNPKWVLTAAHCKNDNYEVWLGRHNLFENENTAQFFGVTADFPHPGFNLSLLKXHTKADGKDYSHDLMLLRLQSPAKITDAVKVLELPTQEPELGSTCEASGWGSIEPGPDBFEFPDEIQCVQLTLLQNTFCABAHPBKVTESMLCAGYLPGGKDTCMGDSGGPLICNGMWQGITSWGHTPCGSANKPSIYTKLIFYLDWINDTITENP

For `N=C(N)NCC1CCC(C(=O)O)CC1` (stereo not drawn) [4-guanidinomethylcyclohexanecarboxylic acid], the anti-plasmin effects entry in data set [1] was “slight anti-plasmin effects”.
For the molecule `CC(C)(C)c1ccc(OC(=O)[C@H]2CC[C@H](CNC(=N)N)CC2)cc1` [Compound 2, 4'-t-Butylphenyl trans-4-guanidinomethylcyclohexanecarboxylate hydrochloride], the values for the inhibition at 25 µg/mL in [2], in data set [6] and in data set [8] (final conc. 25 μg/ml) were 64.3%, 82% and 96%, respectively. The inhibition at 50 µg/mL came out at 100% in data set [2], 96.5% in data set [6] and 100% in data set [8] (final conc. 50 μg/ml). For the same molecule, the IC50 in [3] was found to be 150 µM; in data set [10], 260 µM; in [12] it was 62 µM; in [13] it was 250 µM; in data set [16], 36 µM; in [17], 97 µM. For the same molecule, the IC50 in data set [18] was 170 µM. In addition, the LD50 at 168 h came to 10800 mg/kg in data set [4] and 7300 mg/kg in [15]. For the same molecule, the LD50 in [4] (10080 min, hydrochloride) is given as 11,000 mg/kg; in data set [15] (10080 min, hydrochloride), 5400 mg/kg. Besides, the “Inhibition of passive cutaneous anaphylaxis” value in data set [5] worked out at 91.16%. The “Time to fall down” value in data set [7] was more than 900 s; in data set [14] (125 mg/kg oral, 125 mg/kg), 699 sec. and > 900 sec. (4×); in [14] (250 mg/kg oral, 250 mg/kg), 632 sec. and > 900 sec. (4×); in data set [14] (500 mg/kg oral, 500 mg/kg) it was 768 sec. and > 900 sec. (4×). Further, the “Survival after 24 hr. (5 mice)” value is on record as 2 mice in data set [9] (100 mg/kg), 2 mice in [9] (250 mg/kg) and 4 mice in data set [9] (500 mg/kg). In addition, the inhibition at 10 µg/mL in data set [11] was 46.7%.

For orientation: inhibition means the drop in the measured response relative to a control, in per cent. The LD50 is the dose at which mortality reaches 50%. Read a high LD50 as a less toxic substance.
